Test results taken from article PMC13408441, “Molecular regulation and physiological role of GOLPH3-mediated Golgi retention” (Nature Communications, 2026).

Columns and labels:
GOLPH3 = experiment: Click-PEG metabolic labeling of GOLPH3 S-acylation; type: cell-based, human; conditions: HeLa, 4 hours
Protocol: Cells are washed twice with serum-free medium with 1 mg/ml BSA and incubated indicated times with either 100 µM palmitic acid azide or 100uM unlabeled palmitic acid (control). Cells are washed 3 times with cold PBS and lysed in 50 mM Tris-HCl (pH 8.0) and 0.5% SDS. Cell lysates are subjected to click reaction with 5 kDa mPEG-Alkyne, CuSO4, TBTA and ascorbic acid for 1 h at room temperature. Samples are boiled with 4x SDS with BME sample buffer, and analyzed by WB on reducing condition on 4–20% SDS-PAGE gels.

PI4KIIIβ = experiment: GOLPH3 Golgi localization upon PtdIns(4)P depletion by PIK93; type: cell-based, human; conditions: 1 h
Protocol: Immunofluorescence and confocal microscopy
HeLa GOLPH3-KO cells transfected with the different GOLPH3 constructs were plated at approximately 50% confluency post-transfection. Cells were washed with PBS, fixed in 4% paraformaldehyde (PFA) for 20 minutes, washed with PBS, quenched with 50 mM NH4Cl for 10 minutes, and washed again with PBS. Cells were permeabilized with 0.05% saponin in PBS for 5 minutes. Subsequently, cells were washed and blocked with 3% BSA and 0.05% saponin in PBS for 30 minutes. Primary antibodies (anti-GOLPH3 and anti-GM130) and secondary antibodies were diluted in the same buffer. After blocking, coverslips were washed and incubated with primary antibodies overnight at 4 °C, washed in PBS, and incubated for 45 minutes with secondary antibodies. Cells were then washed and stained with Hoechst for nuclear visualization. Finally, coverslips were mounted in Prolong Glass Antifade Mountant.
Images were acquired using a Zeiss LSM 980 Inverted microscope with a 63X objective, a pinhole size of 1 AU and at least 2 line-averaging or alternatively using Oympus Evident FV4000. Super-resolution images were taken using Zeiss LSM980 with Airyscan2 module, with 63×oil-immersion objectives. Images were processed using Fiji (ImageJ). Cis-to-trans Golgi linescans were recorded using the “Color Profiler” plugin (Color_Profiler. jar, https://imagej.nih.gov/ij/plugins/color -profiler.html) in Fiji software. […]
Figure S5. GOLPH3 regulation by S-acylation
A. Immunofluorescence analysis of GOLPH3 Golgi localization upon acute PtdIns(4)P depletion.
GOLPH3-KO HeLa cells expressing CERT-GFP (cyan) or GOLPH3 variants (yellow) were treated with increasing concentrations of PIK93 for 1 h. Golgi localization, assessed by colocalization with GM130 (magenta), is highlighted in the insets. Scale bar, 5 µm. […]

[1] = CD thermal denaturation of GOLPH3 proteins; type: physicochemical, human; conditions: CD at 207 nm, 20 to 95 °C at 1 °C/min, 10 μM protein, 100 mM NaCl, 50 mM Tris pH 7.4, 1 mM TCEP
Protocol: (§1) Supplemental Material for Theodoropoulou, Nasrallah, et al 2026
Isothermal titration calorimetry
Isothermal titration calorimetry (ITC) experiments were performed on a MicroCal PEAQ-ITC (Malvern Panalytical), with GOLPH3 variants being in a buffer containing 250 mM NaCl, 50 mM Tris pH 8.0 and 1 mM TCEP. LCS peptides were synthesised and delivered as lyophilised powder (Genscript). The peptides were dissolved in the protein buffer and their concentrations were calculated based upon their absorbance at 280 nm and their corresponding molar extinction coefficient. Experiments consisted of titrations of a single 0.4 µL injection followed […]
GOLPH3 proteins at a 100 μM concentration. Experiments were performed at 25 °C in triplicate (n = 3), with injection duration of 4 s, injection spacing of 150 s, stir speed of 750 rpm, and reference power of 7 μcal/s. Data were processed and plotted using MicroCal PEAQ‐ITC Analysis Software and fitted to a one‐site binding model.
(§2) Circular Dichroism Spectroscopy
(§3) Circular Dichroism Spectra of GOLPH3 proteins (at 10 μM in 100 mM NaCl, 50 mM Tris pH 7.4 and 1 mM TCEP) were collected with a Chirascan V100 (AppliedPhotophysics), using a 1 mm path length cuvette, at 20 °C, in the 200-260 nm range. Thermal denaturation experiments […]
(§4) every 1 °C, with a temperature ramp speed of 1 °C/min and an equilibration time of […]

[2] = CD secondary structure of GOLPH3 proteins (BestSel fits); type: physicochemical, human; conditions: 10 μM, 100 mM NaCl, 50 mM Tris pH 7.4, 1 mM TCEP, 20 °C
Protocol: as §1
Isothermal titration calorimetry […]
as §2, §3, §4
Table S2: Fits of CD spectra to fractions of secondary structure for Golph3 WT and various mutants of it, carried out with the BestSel server

[3] = SEC-MALS of GOLPH3 constructs; type: physicochemical, human; conditions: 12 mg/mL, 250 mM NaCl, 50 mM Tris pH 8.0, 1 mM TCEP
Protocol: Supplemental Material for Theodoropoulou, Nasrallah, et al 2026 buffer. Pooled fractions were concentrated to the required concentration using a MWCO concentrator (Millipore) with a cutoff of 10 kDa.
Size exclusion chromatography coupled to multi-angle light scattering
The molecular weights of the tested constructs were determined by size exclusion chromatography coupled to multi-angle light scattering (SEC-MALS). The mass measurements were performed on a UltiMate3000 HPLC system equipped with a 3 angles miniDAWN TREOS static light scattering detector (Wyatt Technology). The sample volumes of 5−10 μl at a concentration of 12 mg/mL, were applied to a Superdex 200 5/150 GL column (Cytiva) previously equilibrated with 250 mM NaCl, 50 mM Tris pH 8.0, 1 mM TCEP at a flow rate of 0.08 mL/min. The data were analyzed using the ASTRA 6.1 software package (Wyatt technology), using the absorbance at 280 nm and the theoretical extinction coefficient for concentration measurements.
Nuclear Magnetic Resonance (NMR) Spectroscopy
All proteins used for NMR experiments were designed on the GOLPH3-4G background due to its higher stability and solubility. Recombinant proteins were prepared with the isotope enrichment scheme appropriate for each experiment (i.e. 15N-only or 15N, 13C) in 20 mM MES buffer pH 6.5 with 250 mM NaCl and 10% 2H2O. Lower salt, even by 10%, yielded much degraded spectra. […]

COc1ccc(N2CCN(C(=O)c3cc4c(s3)-c3ccccc3S(=O)(=O)C4)CC2)cc1 [ML349]
click-PEG signal upon ML348/ML349 (GOLPH3; 10 µM): increased the click-PEG signal

CC(=O)Nc1nc(C)c(-c2ccc(Cl)c(S(=O)(=O)NCCO)c2)s1 [PIK93]
effect of PIK93 on localization of CERT (PI4KIIIβ; CERT-GFP, HeLa): completely relocate CERT to the cytosol
effect of PIK93 on Golgi localization of GOLPH3-C84A (PI4KIIIβ; GOLPH3-KO HeLa expressing C84A): sensitive to PIK93
effect of PIK93 on Golgi localization of GOLPH3 WT (PI4KIIIβ; GOLPH3-KO HeLa expressing GOLPH3 WT, increasing PIK93 concentrations, versus CERT): significantly more resistant to PtdIns(4)P depletion
effect of PIK93 on Golgi localization of GOLPH3-R90L (PI4KIIIβ; GOLPH3-KO HeLa expressing R90L): insensitive to PIK93
effect of PIK93 on Golgi localization of GOLPH3 mutated at Cys108 and Cys122 (PI4KIIIβ; GOLPH3-KO HeLa): strongly Golgi-associated, PIK93-insensitive form

CCCCCCCCCC[C@@H]1C(=O)O[C@H]1CCc1ccc(OC)c(OC)c1 [Palmostatin B]
click-PEG signal upon Palmostatin B (GOLPH3; 50 µM): increased the click-PEG signal

GOLPH3 WT: recombinant human GOLPH3 (Q9H4A6, residues 52-298)
Tm / melting temperature [1]: 52.5 °C
% alpha [2]: 41%
% beta parallel [2]: 0%
% beta-antiparallel [2]: 7%
% others [2]: 36%
% turn [2]: 16%
oligomeric state [3]: monomeric
